From US20230303506A1, “COMPOSITIONS AND METHODS FOR THE PREVENTION AND/OR TREATMENT OF MITOCHONDRIAL DISEASE, INCLUDING FRIEDREICH'S ATAXIA” (Stealth BioTherapeutics Inc., priority 2019, published 2023)
Entries after “also recorded” stand apart in the source; their conditions may differ.

Experiments:
HepG2 cells = test: Rotenone Oxygraph Assay (high-resolution respirometry of intact HepG2 cells); type: cell-based, human; conditions: for Rotenone Oxygraph Assay % Increase: Table 7; for Rotenone Oxygraph Assay % Increase / Percent increase in ATP (Rotenone Oxygraph Assay), Mean: 1 μM rotenone, compound 10 μM; for Percent increase in ATP (Rotenone Oxygraph Assay), Mean: Table 4, intact HepG2 cells, change in respiration rate
Method: The Oxygraph-2 k (O2k, OROBOROS INSTRUMENTS, Austria) was used for measurements of respiration of intact cells. The respirometry was performed in Dulbecco's Modified Eagle Medium (DMEM) high glucose without supplements. All experiments were performed at 37° C.
HepG2 cells (ATCC collection code HB-8065™) were cultured in 10 cm^2 culture dishes in DMEM high glucose medium supplemented with 10% fetal bovine serum (FBS) and 100 units/mL penicillin and 100 μg/mL streptomycin until approximately 90% confluence was reached. Immediately prior to performing the respirometric assay, the cells were washed with media without FBS, trypsinized and resuspended in DMEM high glucose without FBS.
The final concentration of intact cells in the O2k-chamber was 0.5·10^6/mL. After stabilization of respiration, the Complex I inhibitor, rotenone, at 1 μM final concentration was added to inhibit electron flux via Complex I. Then, compound to be tested was added at 10 μM final concentration, and the change in respiration rate of intact cells was monitored.

lipoxygenase-15 enzyme = lipoxygenase-15 enzyme (Glycine max (Soybean) (Glycine hispida), UniProt P08170); test: Lipoxygenase-15 Assay (LO-15 Assay); conditions: reduced form of compounds
Nrf-2 = Nrf-2 Activation Assay (Nrf-2 Assay); type: cell-based, human; conditions: for activation of Nrf-2 pathway, in words: FIG. 7; for Nrf-2 Assay: Table 7, 1 μM compound, 24 hours, qPCR of Nrf-2 responsive genes
Method: This assay was developed internally and was designed to determine if the novel test compounds disclosed herein active Nrf-2 and thereby promote resolution of inflammation by the mechanism believed to be responsible for the activity of omaveloxolone.
Briefly, GM03665 Friedreich Ataxia patient fibroblasts were grown in 12 Well Plates (TC Cell+F) (Sarstedt, Numbrecht Germany), at a density of […] in DMEM/F12 (Gibco, ThermoFisher Scientific, Waltham, MA, USA) cell media supplemented with 10% FBS and 1% Pen/Strep. Cells were left to rest overnight at 37° C. in a humidified atmosphere with 5% CO2 to allow attachment of the cells to the culture plate. Before continuing assay visual inspection of each well was done by light microscopy to detect any possible bacterial and fungal contamination. […] After incubation, cell media was removed and total RNA from the cells was isolated using E.Z.N.A.® Total RNA Kit I (Omega Bio-tek, Norcross, Georgia, USA) spin columns, and first-strand cDNA synthesis was carried out using a High Capacity cDNA Reverse Transcription Kit (Applied Biosystems™, Foster City, CA) following the manufacturer's instructions. qPCR analysis of gene expression was performed by mixing SYBR® Green Master Mix (Applied Biosystems™) with synthesized cDNA and forward and reverse primers. […] (60 cycles), and 95° C. for 60 seconds, followed by melt curve analysis at 72-95° C., 0.3° C./sec. The relative expression levels for each gene were calculated with the ΔΔCt method and normalized to the expression of REEP5 and SNRPD3 genes.

[1] = test system: HepG2 human hepatocarcinoma cells; test: Rotenone ATP Assay (Complex I Assay); type: cell-based; conditions: for activity in both the BSO Assay and the Rotenone ATP Assay, in words: BSO Assay and Rotenone ATP Assay taken together; for Complex I by-pass activity / restoring ATP production, in words: summary of rotenone assays; for Rotenone ATP Assay EC50, nM: Table 7
Method: This assay has been adapted from Haefeli R H, Erb M, Gemperli A C, Robay D, Courdier Fruh I, et al. (2011) NQO1-Dependent Redox Cycling of Idebenone: Effects on Cellular Redox Potential and Energy Levels. PLoS ONE 6(3): e17963. HepG2 human hepatocarcinoma cells were co-incubated with the electron transport chain Complex I toxin rotenone +/− compounds of interest and the corresponding effect on ATP synthesis was measured with a bioluminescent substrate.
In brief, HepG2 cells were plated at 25,000 cells per well in low glucose (1 gram/Liter) DMEM medium+10% fetal calf serum and incubated for 24 hours. The following day, the media was decanted and subsequently replaced with glucose free/serum free DMEM which has been supplemented with 50 micromolar rotenone and compound of interest. Serial dilutions of compound were prepared in 3× dilutions beginning at 25 micromolar. The cells were incubated for 60 minutes in a humidified tissue culture incubator. Following incubation, ATP levels were quantified via bioluminescent assay (Promega […] Glo Assay kit) and readings were captured on a standard microplate reader.
ATP bioluminescence is plotted versus the log of compound of interest and data were used to generate EC50 values. Curve fitting was performed using a sigmoidal dose response curve fit function (GraphPad Prism software).
Robustness of curve fit was assessed as a quality control measure, with an R squared value of at least 0.80 being required for a successful curve fit. Compounds of interest showing an increase in ATP bioluminescence relative to vehicle control were verified in an independent biological replicate of n=3 technical replicates per dose.
This assay is a direct measure of the ability of compounds of interest to restore ATP production under conditions of inhibition of Complex I of the mitochondrial electron transport chain. As the majority of ATP produced via the electron transport chain is thought to derive from Complex I activity, significant impairment in Complex I function has dire biological consequences. Of note, Complex I mutations are thought to drive pathophysiology in multiple mitochondrial diseases, including Leigh syndrome and Leber's Hereditary Optic Neuropathy (LHON), while diminished Complex I activity and the resultant attenuation of ATP production has been shown in neurodegenerative diseases, including Friedreich's Ataxia, Parkinson's Disease and Huntington's Disease.

GM03665 cells = test: RSL3 Toxicity Assay (RSL3 Assay); type: cell-based, human
Method: In brief, GM03665 cells (Coriell Institute) were seeded in 96-well plates (Sarstedt) in DMEM cell culture media containing 10% Fetal Bovine serum and 1% Penicillin-Streptomycin (Pen-Strep) antibiotic mix at the amount of 2×10^4/mL (100 μL or 2×10^3 cells per well). Cells were left to rest overnight at 37° C. in a humidified atmosphere with 5% CO2 to allow attachment of the cells to the culture plate. Test compounds were prepared as DMSO stocks (10 mM) and were serially diluted in cell culture media to obtain 2× working solutions. Cell media was discarded and replaced by 50 μL of test compound solutions or cell media with vehicle for control wells. Within 15 minutes, 2× working solution (4 μM) of 1S,3R-RSL3 (CAS #1219810-16-8, Sigma-Aldrich) (diluted from 5 mM DMSO stock in cell culture media) was added. Final reaction volume was 100 μL and final DMSO concentration in reaction was kept below 0.2% (v/v) and equal in all wells. Final RSL3 concentration was 2 μM and test compound final concentrations in reaction were up to 1000 nM. After 24 hours of incubation cell viability was assessed by MTT test. MTT (Sigma-Aldrich) solution 1 mg/mL in 1×PBS (pH=7,4) was prepared 1 hour before the assay and filtered through Filtropur S 0.2 filters (Sarstedt). Cell media with test compounds was discarded and 100 μL of MTT solution was added to cells. The plates were incubated for 2 hours at +37° C. Thereafter, the MTT solution was removed and 100 μL of isopropanol was added to dissolve sediment. Absorption at 570 and 650 nm was measured using Hidex Sense microplate reader.

[2] = test system: frataxin deficient fibroblasts (GM03665); test: cells; type: cell-based
[3] = HepG2, 50 micromolar rotenone, 60 minutes

Row | SMILES | Rotenone Oxygraph Assay % Increase (HepG2 cells) | activity in LO-15 assay, in words (lipoxygenase-15 enzyme) | activation of Nrf-2 pathway, in words (Nrf-2) | Nrf-2 Assay (Nrf-2) | activity in both the BSO Assay and the Rotenone ATP Assay, in words [1] | Complex I by-pass activity / restoring ATP production, in words [1] | activity in RSL3 assay (protection from RSL3 induced ferroptosis), in words (GM03665 cells) | activity in BSO assay (protection from BSO induced cell death), in words [2] | activity in Rotenone Oxygraph Assay, in words (HepG2 cells) | Percent increase in ATP (Rotenone Oxygraph Assay), Mean (HepG2 cells) | EC50 ([1]; Homo sapiens, 1 h, HepG2, 50 micromolar rotenone, 60 minutes, ATP bioluminescence, read-out: EC50 Rotenone ATP Assay) [µM] | Rotenone ATP Assay EC50, nM [1, 3] | EC50 ([2]; Homo sapiens, Fibroblast, FA patient fibroblasts pretreated with compound, 10 mM BSO, 48 hrs, MTT, read-out: EC50 (nM) BSO Assay) [nM] | RSL3 Assay EC50, Mean (GM03665 cells; Table 3, 2 μM RSL3, 24 hours, MTT, mean of at least three measurements, unit printed in Table 7) | RSL3 Assay EC50, nM (GM03665 cells; Table 7, 2 μM RSL3, 24 hours, MTT)
1 | CC1=C(C)C(=O)C(CC[C@@](C)(O)CC/C=C(\C)CCC=C(F)F)=C(C)C1=O [Compound L, (S,E)-2-(11,11-difluoro-3-hydroxy-3,7-dimethylundeca-6,10-dien-1-yl)-3,5,6-trimethylcyclohexa-2,5-diene-1,4-dione] | 58.6 +/− 15.5% | active; also recorded: effective inhibitors | do not activate | Inactive | possess both activities | active | active; also recorded: able to prevent ferroptotic cell death | able to prevent ferroptotic cell death; also recorded: active |  |  |  |  |  |  | 
2 | CC(C)=CCC/C(C)=C/CC/C(C)=C/CC[C@@](C)(O)CCC1=C(C)C(=O)C(C)=C(C)C1=O (stereo in doubt) [Vatiquinone, reference compound] | Inactive |  |  |  | do not possess both activities; also recorded: none of them are active in both assays | not | active | ability to circumvent BSO induced cell death; also recorded: active | inactive | Inactive | > 3 | Inactive | < 100 |  | 
3 | CC1=C(C)C(=O)C(CC[C@](C)(O)CC/C=C(\C)CC/C=C(\C)CCC=C2COC2)=C(C)C1=O [Compound E, 2-((R,6E,10E)-3-hydroxy-3,7,11-trimethyl-14-(oxetan-3-ylidene)tetradeca-6,10-dien-1-yl)-3,5,6-trimethylcyclohexa-2,5-diene-1,4-dione] | 37.9 +/− 10.7% | outside of the range of the assay | do not activate | Inactive | possess both activities | active | active; also recorded: able to prevent ferroptotic cell death | able to prevent ferroptotic cell death; also recorded: active |  |  |  |  |  |  | 
4 | CC1=C(C)C(=O)C(CC[C@](C)(O)CCCCCCCCC(F)(F)F)=C(C)C1=O [Compound N, (R)-2,3,5-trimethyl-6-(12,12,12-trifluoro-3-hydroxy-3-methyldodecyl)cyclo-hexa-2,5-diene-1,4-dione] | 44.8 +/− 10.3% | active; also recorded: effective inhibitors | do not activate | Inactive | possess both activities | active | active; also recorded: able to prevent ferroptotic cell death | able to prevent ferroptotic cell death; also recorded: active |  |  |  |  |  |  | 
5 | CC1(C)CC[C@]2(NC(=O)C(C)(F)F)CC[C@]3(C)[C@H](C(=O)C=C4[C@@]5(C)C=C(C#N)C(=O)C(C)(C)[C@@H]5CC[C@]43C)[C@@H]2C1 [Omaveloxolone, reference compound] | Inactive |  | positive and does | Active | do not possess both activities; also recorded: none of them are active in both assays | not |  | ability to circumvent BSO induced cell death; also recorded: displayed anti-ferroptotic activity; also recorded: active | inactive | Inactive |  | Inactive |  | Inactive | Inactive
6 | COC1=C(OC)C(=O)C(CCCCCCCCCCO)=C(C)C1=O [Idebenone] | 70.2 +/− 15% |  |  |  | do not possess both activities; also recorded: none of them are active in both assays | ability to restore ATP production when Complex I is inhibited; also recorded: active |  | very weakly active/borderline inactive |  |  |  |  |  |  | 
7 | Cc1c(C)c2c(c(C)c1O)CC[C@@](C)(CCC=C(F)F)O2 [Compound 67, (R)-2-(4,4-difluorobut-3-en-1-yl)-2,5,7,8-tetramethylchroman-6-ol] |  |  |  |  | possess both activities |  |  |  |  |  |  |  |  |  | 
